Source: patent publication US20100292185A1, “BETA-LACTAMASE INHIBITORS” (priority 2009, published 2010)
Where a name gives a salt, the structure may show the parent alone.

Experiments:
[1] = system: P. aeruginosa expressing the Class B metallo β-lactamase VIM-2; test: In vitro antibacterial assay of β-lactamase inhibition (broth microdilution MIC), P. aeruginosa VIM-2; type: cell-based; conditions: for MIC: Pseudomonas aeruginosa, read-out: MIC alone, P. aeruginosa VIM-2; for MIC of example compound, P. aeruginosa VIM-2: in presence of Ceftazidime 16 μg/mL (Examples 1-56)
Source text: (§1) To determine the ability of test compounds to potentiate the inhibition of the growth of bacterial strains producing beta-lactamase enzymes, classic cell based screening assays were employed. Five bacteria strains producing beta-lactamase enzymes were used: K. pneumoniae expressing the Class A Extended Spectrum Beta-Lactamase (ESBL) CTX-M-15, E. coli expressing the Class A ESBL SHV-5, E. cloacae expressing the Class C P99+, K. pneumoniae expressing the Class A carbapenemase KPC-2, and P. aeruginosa expressing the Class B metallo β-lactamase VIM-2. In order to evaluate the ability of test compounds to inhibit beta-lactamase activity, Applicants used a modification of the broth microdilution assay. The assay was conducted in Cation Adjusted Mueller Hinton Broth (CAMHB, BD # 212322, BD Diagnostic Systems, Sparks, Md.). Bacteria strains were grown for 3-5 hours in CAMBH broth. All five strains were grown in presence of 50 μg/mL ampicillin to ensure resistance is maintained. In the meantime, test compounds were diluted in DMSO to a 0.1 mg/mL stock. The compounds were added to a microtiter plate and were diluted in 2-fold serial dilutions in CAMHB in a final concentration range of 8 μg/mL to 0.015 μg/ml. […] Each of these compound plates are made in quadruplicate, one for each bacteria strain. In addition to the titration of test compounds the MICs of a panel of cephalosporins is also tested to ensure the strains are behaving consistently from test to test. Once the test compound and cephalosporin are added the plates can be inoculated. Inocula are conducted according to CLSI broth microdilution method. After inoculation the plates are incubated for 16-20 hours at 37° C. then the Minimal Inhibitory Concentration (MIC) of the test compound is determined visually.
(§2) Using the methodology described above, examples of the current invention were evaluated for their ability to inhibit the growth of β-lactamase producing bacteria in the presence of a β-lactam antibiotic.

[2] = system: K. pneumoniae expressing the Class A Extended Spectrum Beta-Lactamase (ESBL) CTX-M-15; test: In vitro antibacterial assay of β-lactamase inhibition (broth microdilution MIC), K. pneumoniae CTX-M-15; type: cell-based; conditions: for MIC: Klebsiella pneumoniae, read-out: MIC alone, K. pneumoniae CTX-M-15
Source text: as §1, §2

[3] = system: E. cloacae expressing the Class C P99+; test: In vitro antibacterial assay of β-lactamase inhibition (broth microdilution MIC), E. cloacae P99+; type: cell-based; conditions: for MIC: Enterobacter cloacae, read-out: MIC alone, E. cloacae P99+ AmpC
Source text: as §1, §2

[4] = system: K. pneumoniae expressing the Class A carbapenemase KPC-2; test: microbe, parasite or virus in culture; type: cell-based; conditions: for MIC: Klebsiella pneumoniae, read-out: MIC alone, K. pneumoniae KPC-2
Source text: as §1, §2

[5] = system: E. coli expressing the Class A ESBL SHV-5; test: In vitro antibacterial assay of β-lactamase inhibition (broth microdilution MIC), E. coli SHV-5; type: cell-based; conditions: for MIC: Escherichia coli, read-out: MIC alone, E. coli SHV-5
Source text: as §1, §2

KPC-2 β-lactamase = target: T1, KPC-2 β-lactamase (Klebsiella pneumoniae, UniProt Q9F663); test: β-lactamase enzyme inhibition assay (nitrocefin substrate), KPC-2; type: biochemical
T1 construct: expressed as native untagged proteins; made in house; host or cells: E. coli BL21(DE3)
Experimental: (§3) Isolation of β-lactamases. For SHV-5, p99 AmpC, KPC-2 and CTX-M15 β-lactamases, E. coli BL21(DE3) bacterial cells carrying expression plasmids (expressed as native untagged proteins) for the individual β-lactamases were grown in 1 L of Superbroth (Teknova Inc. Hollister, Calif.) supplemented with 100 μg/ml kanamycin and 1×5052 (0.5% glycerol, 0.05% glucose and 0.2% α-lactose) at 35° C. for 18-20 hours. Cells were harvested by centrifugation (4,000×g, 4° C., 20 min), and resuspended in 50 ml of 10 mM HEPES pH 7.5 (1/20 of the initial volume). The cells were lysed by sonication (5 pulses of 45 seconds) at 45 W on ice. The lysates were clarified by centrifugation at 10,000×g for 40 minutes at 4° C. Samples were diluted 5-fold in 50 mM sodium acetate pH 5.0, stored overnight at 4° C., after which they were centrifuged at 10,000×g for 30 minutes to clarify, and filtered through 0.45 μm filters. The samples were loaded onto a 5 ml Capto S sepharose cation exchange column (GE Healthcare) pre-equilibrated with 50 mM sodium acetate pH 5.0. The column was washed with 5 column volumes of 50 mM sodium acetate pH 5.0 to wash out unbound protein and a linear gradient of NaCl (0 to 500 mM) was used to elute the protein (over 16 CV) from the column. Fractions were assayed for β-lactamase activity using Centa (Calbiochem, Gibbstown, N.J.) as a reporter β-lactamase substrate for activity in the isolated fractions. Active fractions were pooled, concentrated and further purified by gel filtration chromatography on a Superdex 75 prep grade gel filtration column (GE Healthcare, Piscataway, N.J.) pre-equilibrated in 50 mM Hepes pH 7.5, 150 mM NaCl. Active fractions were pooled concentrated, quantitated by BCA protein determination (Thermo Scientific, Rockford, Ill.), and frozen at −80° C. in 20% glycerol until use.
(§4) β-lactamase Inhibition. To determine the level of inhibition of β-lactamase enzymes, compounds were diluted in PBS at pH 7.0 to yield concentrations between 100 and 0.005 μM in microtiter plates. An equal volume of diluted enzyme stock was added, and the plates were incubated at 37° C. for 10 min. Nitrocefin solution was then dispensed as substrate into each well at a final concentration of 100 μM, and the plates were immediately read with the kinetic program at 486 nm for 10 min on the SPECTRAMAX® Plus^384 (high-throughput microplate spectrophotometer; Molecular Devices Corp., Sunnyvale, Calif.). Maximum rates of metabolism were then compared to those in control wells (without inhibitors), and percentages of enzyme inhibition were calculated for each concentration of inhibitor. The concentration of inhibitor needed to reduce the initial rate of hydrolysis of substrate by 50% (IC50) was calculated as the residual activity of β-lactamase at 486 nm using the SoftMax Pro 5.0 software (Molecular Devices Corp.).
(§5) Using the methodology described above, examples of the current invention were evaluated for their ability to inhibit β-lactamase enzymes. The results of these assays are summarized in Table 2 for representative enzymes across different subtypes (note SHV-5 and CTXM-15 exemplify different subclasses of Ambler Class A Extended Spectrum Beta Lactamases, KPC-2 exemplifies Class A carbapenemases, P99 represents chromosomal Class C AmpC, VIM-2 exemplifies subclass B1 of metallo-β-lactamases, and OXA-23 represents chromosome-encoded Class D oxacillin-hydrolyzing β-lactamases), NT=not tested.

CTX-M15 β-lactamase = target: T2, CTX-M15 β-lactamase (Escherichia coli, UniProt Q9EXV5); test: β-lactamase enzyme inhibition assay (nitrocefin substrate), CTXM-15; type: biochemical
T2 construct: expressed as native untagged proteins; made in house; host or cells: E. coli BL21(DE3)
Experimental: as §3, §4, §5

p99 AmpC β-lactamase = target: T3, p99 AmpC β-lactamase (Enterobacter cloacae, UniProt P05364); test: β-lactamase enzyme inhibition assay (nitrocefin substrate), P99 AmpC; type: biochemical; conditions: nitrocefin 100 μM, 37° C., PBS pH 7.0; read-out: P99 AmpC IC50
T3 construct: expressed as native untagged proteins; made in house; host or cells: E. coli BL21(DE3)
Experimental: as §3, §4, §5

SHV-5 β-lactamase = target: T4, SHV-5 β-lactamase (Klebsiella pneumoniae, UniProt P0A3M1); test: β-lactamase enzyme inhibition assay (nitrocefin substrate), SHV-5; type: biochemical
T4 construct: expressed as native untagged proteins; made in house; host or cells: E. coli BL21(DE3)
Experimental: as §3, §4, §5

[6] = in presence of Ceftazidime 8 μg/ml (Examples 1-56)
[7] = in presence of Piperacillin 16 μg/ml (Examples 57-65)

T2 sequence (Q9EXV5 entry or part of it): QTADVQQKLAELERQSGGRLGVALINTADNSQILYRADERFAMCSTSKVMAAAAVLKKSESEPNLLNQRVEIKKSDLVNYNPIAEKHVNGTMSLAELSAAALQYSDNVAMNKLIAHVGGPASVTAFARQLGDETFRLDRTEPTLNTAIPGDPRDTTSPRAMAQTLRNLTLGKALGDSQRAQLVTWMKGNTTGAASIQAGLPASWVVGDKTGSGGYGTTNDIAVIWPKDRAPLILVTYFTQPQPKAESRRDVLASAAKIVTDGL
T3 sequence (P05364 21-381): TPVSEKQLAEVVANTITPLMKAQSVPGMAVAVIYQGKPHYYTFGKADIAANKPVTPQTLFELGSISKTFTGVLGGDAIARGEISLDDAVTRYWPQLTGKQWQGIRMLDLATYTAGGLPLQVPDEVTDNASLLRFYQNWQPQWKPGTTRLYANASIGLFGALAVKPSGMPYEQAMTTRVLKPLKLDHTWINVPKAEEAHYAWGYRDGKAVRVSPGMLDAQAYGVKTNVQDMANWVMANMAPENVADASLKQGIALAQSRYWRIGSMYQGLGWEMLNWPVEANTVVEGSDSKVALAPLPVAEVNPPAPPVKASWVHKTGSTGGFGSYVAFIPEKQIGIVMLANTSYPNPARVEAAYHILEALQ
T4 sequence (P0A3M1 22-286): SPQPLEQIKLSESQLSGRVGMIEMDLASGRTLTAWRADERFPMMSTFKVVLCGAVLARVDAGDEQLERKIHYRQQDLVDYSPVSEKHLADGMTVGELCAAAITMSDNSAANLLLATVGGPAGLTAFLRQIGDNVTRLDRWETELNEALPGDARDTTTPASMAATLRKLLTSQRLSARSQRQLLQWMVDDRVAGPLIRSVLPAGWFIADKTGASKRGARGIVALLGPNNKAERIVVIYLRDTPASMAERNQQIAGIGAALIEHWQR
T1 sequence (Q9F663 25-293 limits assumed): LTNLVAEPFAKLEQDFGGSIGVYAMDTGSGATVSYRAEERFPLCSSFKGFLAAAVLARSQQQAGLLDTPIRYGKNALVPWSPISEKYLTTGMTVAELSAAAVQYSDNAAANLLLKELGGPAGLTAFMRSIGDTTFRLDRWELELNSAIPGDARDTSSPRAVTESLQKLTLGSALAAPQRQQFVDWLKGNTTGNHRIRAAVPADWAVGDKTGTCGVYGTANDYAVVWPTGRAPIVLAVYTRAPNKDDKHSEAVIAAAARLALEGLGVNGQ

SMILES	MIC [1]	MIC [2]	MIC [3]	MIC [4]	MIC [5]	MIC of example compound, P. aeruginosa VIM-2 [1]	MIC of example compound, K. pneumoniae CTX-M-15 [2, 6]	IC50 (KPC-2 β-lactamase)	MIC of example compound, E. cloacae P99+ [3, 6]	IC50 (CTX-M15 β-lactamase)	IC50 (p99 AmpC β-lactamase)	MIC of example compound, K. pneumoniae KPC-2 [4, 6]	IC50 (SHV-5 β-lactamase)	MIC of example compound, E. coli SHV-5 [5, 6]	MIC of example compound, K. pneumoniae CTX-M-15 [2, 7]	MIC of example compound, E. cloacae P99+ [3, 7]	MIC of example compound, K. pneumoniae KPC-2 [4, 7]	MIC of example compound, E. coli SHV-5 [5, 7]
CC(C)(O/N=C(\C(=O)N[C@@H]1C(=O)N2C(C(=O)[O-])=C(C[n+]3ccccc3)CS[C@H]12)c1csc(N)n1)C(=O)O [Ceftazidime, reference compound]	128 µg/mL	128 µg/mL	128 µg/mL	32 µg/mL	> 1020 µg/mL	–	–	–	–	–	–	–	–	–	–	–	–	–
Cl.O=C(N[C@@H](Cc1cccc(C(=O)O)c1O)B(O)O)c1ccc(CNCCO)cc1 [Example 16, (1R)-[4-(2-hydroxy-ethylamino)-methyl]-benzoylamino-(3-carboxy-2-hydroxy)benzyl-methyl boronic acid hydrochloride]	–	–	–	–	–	4 µg/mL	1 µg/mL	5 nM	0.25 µg/mL	5 nM	6 nM	0.03 µg/mL	> 1000 nM	8 µg/mL	–	–	–	–
Cl.O=C(N[C@@H](Cc1cccc(C(=O)O)c1O)B(O)O)c1ccc(CNCc2cccnc2)cc1 [Example 17, (1R)-[4-(pyridin-3-ylmethylaminomethyl]-benzoylamino-(3-carboxy-2-hydroxy)benzyl-methylboronic acid hydrochloride]	–	–	–	–	–	–	–	15 nM	–	5 nM	8 nM	–	> 1000 nM	–	–	–	–	–
Cl.O=C(N[C@@H](Cc1cccc(C(=O)O)c1O)B(O)O)c1ccc(CNCc2cccnc2)cc1 [Example 17]	–	–	–	–	–	>8 µg/mL	2 µg/mL	–	1 µg/mL	–	–	0.12 µg/mL	–	>8 µg/mL	–	–	–	–
O=C(N[C@@H](Cc1cccc(C(=O)O)c1O)B(O)O)c1cccc(CN(CCO)CCO)c1 [Example 23, (1R)-(3-{[bis-(2-hydroxy-ethyl)-amino]-methyl}-benzoylamino)-(3-carboxy-2-hydroxy)benzyl-methylboronic acid formate]	–	–	–	–	–	>8 µg/mL	1 µg/mL	8.1 nM	2 µg/mL	2 nM	0.9 nM	0.12 µg/mL	17 nM	8 µg/mL	–	–	–	–
N=C(N)NCCC[C@H](NCc1ccc(CC(=O)N[C@@H](Cc2cccc(C(=O)O)c2O)B(O)O)cc1)C(=O)O [Example 59, (1R)-1-(2-{4-[(1-Carboxy-4-guanidino-butylamino)-methyl]-phenyl}-acetylamino)-1-[(3-carboxy-2-hydroxy)benzyl]-methylboronic acid formate]	–	–	–	–	–	–	–	15 nM	–	–	6 nM	–	2 nM	–	>16 µg/mL	2 µg/mL	1 µg/mL	0.5 µg/mL
O=C(Cc1ccc(CNC(CO)C(=O)O)cc1)N[C@@H](Cc1cccc(C(=O)O)c1O)B(O)O (stereo partly drawn) [Example 60, (1R)-1-(2-{4-[(1-Carboxy-2-hydroxy-ethylamino)-methyl]-phenyl}-acetylamino)-1-[(3-carboxy-2-hydroxy)benzyl]-methylboronic acid formate]	–	–	–	–	–	–	–	11 nM	–	–	9 nM	–	2 nM	–	>16 µg/mL	2 µg/mL	0.5 µg/mL	1 µg/mL
N=C(N)NCc1ccc(CC(=O)N[C@@H](Cc2cccc(C(=O)O)c2O)B(O)O)cc1 [Example 61, (1R)-1-{2-[4-(1-guanidinomethyl)-phenyl]-acetylamino}-1-[(3-carboxy-2-hydroxy)benzyl]-methylboronic acid formate salt]	–	–	–	–	–	–	–	14 nM	–	4 nM	11 nM	–	2 nM	–	16 µg/mL	0.25 µg/mL	0.25 µg/mL	0.25 µg/mL
N=C(N)c1ccc(CC(=O)N[C@@H](Cc2cccc(C(=O)O)c2O)B(O)O)cc1 [Example 62, (1R)-1-{2-[4-(Carbamimidoyl)-phenyl]-acetylamino}-1-[(3-carboxy-2-hydroxy)benzyl]-methylboronic acid formate salt]	–	–	–	–	–	–	–	9 nM	–	–	3 nM	–	2 nM	–	>128 µg/mL	0.125 µg/mL	0.125 µg/mL	0.125 µg/mL
N=C(N)NCc1cccc(CC(=O)N[C@@H](Cc2cccc(C(=O)O)c2O)B(O)O)c1 [Example 65, (1R)-1-{2-[3-(1-guanidinomethyl)-phenyl]-acetylamino}-1-[(3-carboxy-2-hydroxy)benzyl]-methylboronic acid formate salt]	–	–	–	–	–	–	–	–	–	–	–	–	–	–	>16 µg/mL	0.25 µg/mL	0.5 µg/mL	0.25 µg/mL
CCN1CCN(C(=O)N[C@@H](C(=O)N[C@@H]2C(=O)N3[C@@H]2SC(C)(C)[C@@H]3C(=O)O)c2ccccc2)C(=O)C1=O [Pip, Piperacillin, reference compound]	> 128 µg/mL	> 128 µg/mL	> 128 µg/mL	> 128 µg/mL	> 128 µg/mL	–	–	–	–	–	–	–	–	–	–	–	–	–
